# Assay results reported in paper PMC6572064, “Discovery of 2-(1-(3-(4-Chloroxyphenyl)-3-oxo- propyl)pyrrolidine-3-yl)-1H-benzo[d]imidazole-4-carboxamide: A Potent Poly(ADP-ribose) Polymerase (PARP) Inhibitor for Treatment of Cancer” (Molecules, 2019).
# Where two headings read alike, the source gives them in different places.
# Legend:
# [1] = biological target: T1, PARP-2 (Homo sapiens, UniProt Q9UGN5); assay: PARP-2 inhibition assay (PARP-2 Chemiluminescent Assay Kit, BPS Bioscience); format: biochemical; conditions: 10 nM compound
# T1 construct: purchased BPS Bioscience 80552
# Procedure: (§1) The PARP-1 and PARP-2 inhibition assays were performed in outsourcing, by a CRO company, Shanghai Medicilon Inc. (Shanghai, China). […] Briefly, PARP-1 or PARP-2 biotinylated substrate was incubated with compounds or solvent control at varying concentrations and an assay buffer containing the PARP-1 or PARP-2 enzyme.
# [2] = biological target: T2, PARP-1 (Homo sapiens, UniProt P09874); assay: PARP-1 inhibition assay (PARP-1 Chemiluminescent Assay Kit, BPS Bioscience); format: biochemical; conditions: 10 nM compound
# T2 construct: purchased BPS Bioscience 80569
# Procedure: as §1
# [3] = system: MDA-MB-436 (a BRCA-1-mutated breast cancer cell line); assay: Cell proliferation assay, three-day, CellTiter-Glo, MDA-MB-436; format: cell-based; conditions: for inhibition at 0.00508 µM / inhibition at 0.0152 µM / inhibition at 0.0457 µM / inhibition at 0.41 µM / inhibition at 1.23 µM / inhibition at 3.7 µM / inhibition at 11.11 µM / inhibition at 33.33 µM / inhibition at 100 µM / IC50: Homo sapiens; for inhibition at 0.00508 µM: MDA-MB-436, MDA-MB-436, Conc. 0.00508 uM; for inhibition at 0.0152 µM: MDA-MB-436, MDA-MB-436, Conc. 0.0152 uM; for inhibition at 0.0457 µM: MDA-MB-436, MDA-MB-436, Conc. 0.0457 uM; for inhibition at 0.41 µM: MDA-MB-436, MDA-MB-436, Conc. 0.41 uM; for inhibition at 1.23 µM: MDA-MB-436, MDA-MB-436, Conc. 1.23 uM; for inhibition at 3.7 µM: MDA-MB-436, MDA-MB-436, Conc. 3.70 uM; for inhibition at 11.11 µM: MDA-MB-436, MDA-MB-436, Conc. 11.11 uM; for inhibition at 33.33 µM: MDA-MB-436, MDA-MB-436, Conc. 33.33 uM; for inhibition at 100 µM: MDA-MB-436, MDA-MB-436, Conc. 100.00 uM
# Method in brief: (§2)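 Luminescent ATP read-out (CellTiter-Glo, 60 min at room temperature) quantified viability after a 72 h compound exposure at 37 °C, 5% CO2. Compounds, diluted from DMSO stocks into growth medium, were added to cells plated the previous day.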
# [4] = system: CAPAN-1 (a BRCA-2-mutated pancreatic cancer cell line); assay: Cell proliferation assay, three-day, CellTiter-Glo, CAPAN-1; format: cell-based; conditions: Homo sapiens; for inhibition at 0.00508 µM: CAPAN-1, 0.00508 uM; for inhibition at 0.0152 µM: CAPAN-1, 0.0152 uM; for inhibition at 0.0457 µM: CAPAN-1, 0.0457 uM; for inhibition at […]: CAPAN-1, 0.14 uM; for inhibition at 0.41 µM: CAPAN-1, 0.41 uM; for inhibition at 1.23 µM: CAPAN-1, 1.23 uM; for inhibition at 3.7 µM: CAPAN-1, 3.70 uM; for inhibition at 11.11 µM: CAPAN-1, 11.11 uM; for inhibition at 33.33 µM: CAPAN-1, 33.33 uM; for inhibition at 100 µM: CAPAN-1, 100.00 uM
# Method in brief: as §2
# T2 sequence (P09874 whole entry): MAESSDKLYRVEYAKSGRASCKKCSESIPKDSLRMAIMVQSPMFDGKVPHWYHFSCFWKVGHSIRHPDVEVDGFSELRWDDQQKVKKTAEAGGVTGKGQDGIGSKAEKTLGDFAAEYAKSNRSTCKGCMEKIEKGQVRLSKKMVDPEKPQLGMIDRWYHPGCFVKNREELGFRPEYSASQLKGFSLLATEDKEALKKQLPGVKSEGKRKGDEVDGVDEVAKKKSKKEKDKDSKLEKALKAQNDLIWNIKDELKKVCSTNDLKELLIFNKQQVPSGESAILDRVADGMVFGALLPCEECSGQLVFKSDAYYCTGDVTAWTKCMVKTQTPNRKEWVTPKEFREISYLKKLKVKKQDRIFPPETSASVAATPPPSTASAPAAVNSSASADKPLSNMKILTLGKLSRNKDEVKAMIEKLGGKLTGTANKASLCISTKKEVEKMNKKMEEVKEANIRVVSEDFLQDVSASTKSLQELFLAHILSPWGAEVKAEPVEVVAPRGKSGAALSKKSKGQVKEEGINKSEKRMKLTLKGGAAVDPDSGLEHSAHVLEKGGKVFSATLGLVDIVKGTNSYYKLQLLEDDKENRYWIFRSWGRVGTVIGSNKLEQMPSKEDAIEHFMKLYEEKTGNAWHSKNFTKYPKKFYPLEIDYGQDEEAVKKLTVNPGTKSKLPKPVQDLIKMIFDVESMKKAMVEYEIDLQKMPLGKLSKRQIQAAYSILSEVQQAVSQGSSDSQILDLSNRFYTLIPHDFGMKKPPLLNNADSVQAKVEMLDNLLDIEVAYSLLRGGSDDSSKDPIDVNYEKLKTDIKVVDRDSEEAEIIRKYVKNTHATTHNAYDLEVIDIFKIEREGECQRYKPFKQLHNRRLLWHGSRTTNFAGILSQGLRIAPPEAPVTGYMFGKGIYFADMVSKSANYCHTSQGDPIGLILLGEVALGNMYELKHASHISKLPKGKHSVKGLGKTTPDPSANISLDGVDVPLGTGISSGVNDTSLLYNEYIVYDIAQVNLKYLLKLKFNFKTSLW
# T1 sequence (Q9UGN5 whole entry): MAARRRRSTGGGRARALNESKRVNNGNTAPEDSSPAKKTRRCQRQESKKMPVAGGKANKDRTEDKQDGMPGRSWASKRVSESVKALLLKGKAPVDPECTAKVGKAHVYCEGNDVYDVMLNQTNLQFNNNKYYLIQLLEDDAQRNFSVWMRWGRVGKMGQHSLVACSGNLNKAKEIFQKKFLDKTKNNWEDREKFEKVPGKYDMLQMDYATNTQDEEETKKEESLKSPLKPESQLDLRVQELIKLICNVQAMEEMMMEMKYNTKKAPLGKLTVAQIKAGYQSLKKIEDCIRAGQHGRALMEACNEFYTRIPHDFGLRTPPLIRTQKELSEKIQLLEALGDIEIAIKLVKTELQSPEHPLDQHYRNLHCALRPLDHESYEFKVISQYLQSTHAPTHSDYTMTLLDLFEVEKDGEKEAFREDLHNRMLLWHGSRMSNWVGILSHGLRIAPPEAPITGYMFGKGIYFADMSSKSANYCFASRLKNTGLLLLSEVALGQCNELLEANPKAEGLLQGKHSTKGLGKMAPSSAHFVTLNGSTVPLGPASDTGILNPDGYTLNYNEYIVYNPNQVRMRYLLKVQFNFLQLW
compound,measurement,setting,value
"NC(=O)c1cccc2[nH]c(C3CCN(CC(O)c4ccccc4)C3)nc12 (stereo not drawn) [Compound 5cf, 2-(1-(2-Hydroxy-2-phenylethyl)pyrrolidin-3-yl)-1H-benzo[d]imidazole-4-carboxamide]",inhibition at 0.01 µM,"[1]; supplement sheet, read-out: 10 nM inhibition% PAPR-2",8.96%
same,inhibition at 0.01 µM,[1]; read-out: PARP-2 Inhibition % (10 nM),9%
same,inhibition at 0.01 µM,"[2]; supplement sheet, read-out: 10 nM inhibition% PAPR-1",5.03%
same,inhibition at 0.01 µM,[2]; read-out: PARP-1 Inhibition % (10 nM),5%
same,inhibition at 0.00508 µM,"[3]; replicate 1, read-out: Inh % 1",-0.144%
same,inhibition at 0.00508 µM,"[3]; replicate 2, read-out: Inh % 2",-3.2%
same,inhibition at 0.0152 µM,"[3]; replicate 1, read-out: Inh % 1",-5.7%
same,inhibition at 0.0152 µM,"[3]; replicate 2, read-out: Inh % 2",-4.4%
same,inhibition at 0.0457 µM,"[3]; replicate 1, read-out: Inh % 1",-8.5%
same,inhibition at 0.0457 µM,"[3]; replicate 2, read-out: Inh % 2",-9.4%
same,inhibition at 0.41 µM,"[3]; replicate 1, read-out: Inh % 1",-14.6%
same,inhibition at 0.41 µM,"[3]; replicate 2, read-out: Inh % 2",-10.9%
same,inhibition at 1.23 µM,"[3]; replicate 1, read-out: Inh % 1",-9.9%
same,inhibition at 1.23 µM,"[3]; replicate 2, read-out: Inh % 2",-7%
same,inhibition at 3.7 µM,"[3]; replicate 1, read-out: Inh % 1",1.6%
same,inhibition at 3.7 µM,"[3]; replicate 2, read-out: Inh % 2",-6.5%
same,inhibition at 11.11 µM,"[3]; replicate 1, read-out: Inh % 1",-3.4%
same,inhibition at 11.11 µM,"[3]; replicate 2, read-out: Inh % 2",-9.3%
same,inhibition at 33.33 µM,"[3]; replicate 1, read-out: Inh % 1",17.3%
same,inhibition at 33.33 µM,"[3]; replicate 2, read-out: Inh % 2",8.3%
same,inhibition at 100 µM,"[3]; replicate 1, read-out: Inh % 1",86.9%
same,inhibition at 100 µM,"[3]; replicate 2, read-out: Inh % 2",70.9%
same,IC50,"[3]; MDA-MB-436, 72 h, CellTiter-Glo, read-out: MDA-MB-436 IC50",61 µM
same,IC50,"[3]; MDA-MB-436, 72 h, supplement Summary sheet, read-out: IC50",61 µM
same,IC50,"[3]; MDA-MB-436, curve fit list, no unit in the cell, concentration in uM, read-out: IC50",61 µM
same,LogIC50,"[3]; MDA-MB-436, curve fit on Log (uM) concentrations",1.786
same,Top,"[3]; MDA-MB-436, curve fit parameter (Inh %), '= 100.0' is a constrained value",104.3
same,IC50,"[4]; CAPAN-1, 72 h, CellTiter-Glo, read-out: CAPAN-1 IC50",> 100 µM
same,inhibition at 0.00508 µM,"[4]; replicate 1, read-out: Inh % 1",-1.7%
same,inhibition at 0.00508 µM,"[4]; replicate 2, read-out: Inh % 2",-8.4%
same,inhibition at 0.0152 µM,"[4]; replicate 1, read-out: Inh % 1",3.2%
same,inhibition at 0.0152 µM,"[4]; replicate 2, read-out: Inh % 2",-3.1%
same,inhibition at 0.0457 µM,"[4]; replicate 1, read-out: Inh % 1",-6.9%
same,inhibition at 0.0457 µM,"[4]; replicate 2, read-out: Inh % 2",-3.4%
same,inhibition at […],"[4]; replicate 1, read-out: Inh % 1",10.3%
same,inhibition at […],"[4]; replicate 2, read-out: Inh % 2",-1.9%
same,inhibition at 0.41 µM,"[4]; replicate 1, read-out: Inh % 1",9.4%
same,inhibition at 0.41 µM,"[4]; replicate 2, read-out: Inh % 2",0.649%
same,inhibition at 1.23 µM,"[4]; replicate 1, read-out: Inh % 1",5.9%
same,inhibition at 1.23 µM,"[4]; replicate 2, read-out: Inh % 2",8.1%
same,inhibition at 3.7 µM,"[4]; replicate 1, read-out: Inh % 1",13.8%
same,inhibition at 3.7 µM,"[4]; replicate 2, read-out: Inh % 2",3.5%
same,inhibition at 11.11 µM,"[4]; replicate 1, read-out: Inh % 1",7.2%
same,inhibition at 11.11 µM,"[4]; replicate 2, read-out: Inh % 2",-0.268%
same,inhibition at 33.33 µM,"[4]; replicate 1, read-out: Inh % 1",15.8%
same,inhibition at 33.33 µM,"[4]; replicate 2, read-out: Inh % 2",-1.9%
same,inhibition at 100 µM,"[4]; replicate 1, read-out: Inh % 1",29.7%
same,inhibition at 100 µM,"[4]; replicate 2, read-out: Inh % 2",21.1%
